The test system of assay [1] is L1210. As to the kind of experiment: Concentration required to reduce the growth rate of L-1210 cells to half of the control rate. The class given is functional. The settings on record: Mus musculus, read-out: ID50 (the source's name).
Assay [2] concerns Mus musculus. The assay can be described thus: In vivo increase in life span of drug treated (L1210-bearing) mice administered at a dose of 400 mg/kg/injection. The class given is functional.
Assay [3] has as its system L1210. The assay can be described thus: Concentration required to reduce the growth rate of L-1210 cells to half of the control rate; No effect on cell growth of 1E-4 M of the compound. The settings on record: Mus musculus. The class given is functional, cell-based.
The subject of assay [4] is Mus musculus. The assay can be described thus: In vivo increase in life span of drug treated (L1210-bearing) mice administered at a dose of 600 mg/kg/injection. In kind it is functional.
The subject of assay [5] is Mus musculus. As to the kind of experiment: In vivo increase in life span of drug treated (L1210-bearing) mice administered at a dose of 100 mg/kg/injection. The class given is functional.
The subject of assay [6] is Mus musculus. As to the kind of experiment: In vivo increase in life span of drug treated (L1210-bearing) mice administered at a dose of 200 mg/kg/injection. The class given is functional.
Assay [7] relates to Mus musculus. As to the kind of experiment: In vivo increase in life span of drug treated (L1210-bearing) mice administered at a dose of 8 mg/kg/injection. The class given is functional.
Assay [8] concerns Mus musculus. As to the kind of experiment: In vivo increase in life span of drug treated (L1210-bearing) mice administered at a dose of 320 mg/kg/injection. The class given is functional.
In assay [9] the test system is Mus musculus. As to the kind of experiment: In vivo increase in life span of drug treated (P388-bearing) mice administered at a dose of 200 mg/kg/injection. The class given is functional.
Assay [10] concerns Mus musculus. The assay can be described thus: In vivo increase in life span of drug treated (L1210-bearing) mice administered at a dose of 120 mg/kg/injection. The class given is functional.
The test system of assay [11] is Mus musculus. As to the kind of experiment: In vivo increase in life span of drug treated (L1210-bearing) mice administered at a dose of 25 mg/kg/injection. In kind it is functional.
The test system of assay [12] is Mus musculus. As to the kind of experiment: In vivo increase in life span of drug treated (P388-bearing) mice administered at a dose of 50 mg/kg/injection. The class given is functional.

Each structure is given as a SMILES string.

The values that follow come from ChEMBL document CHEMBL1121578, “Synthesis of certain [6:5:6] linear tricyclic nucleosides as potential antitumor agents” (1980).

For the compound `Nc1ncnc2c1c1c(O)nc(S)nc1n2C1O[C@H](CO)[C@@H](O)[C@H]1O` (stereo partly specified), the IC50 in [1] is 7 µM. Further, the ILS at 400 mg/kg in assay [2] is 14%.
With `CSc1nc(N)c2c3c(N)ncnc3n(C3O[C@H](CO)[C@@H](O)[C@H]3O)c2n1` (stereo partly specified), the ID50 entry in assay [3] is “No effect”. For the same compound, in assay [2], the ILS at 400 mg/kg stood at 1%.
On to `Nc1ncnc2c1c1c(S)nc(S)nc1n2C1O[C@H](CO)[C@@H](O)[C@H]1O` (stereo partly specified), for which the IC50 in assay [1] is 6.1 µM. The ILS at 400 mg/kg in assay [2] is 10%.
For the compound `N#Cc1c(Br)n(C2O[C@H](CO)[C@@H](O)[C@H]2O)c2ncnc(N)c12` (stereo partly specified), the ILS at 600 mg/kg in [4] came out at 22%. The IC50 in [1] was 0.21 µM.
For the compound `Nc1ncnc2c1c1c(S)ncnc1n2C1O[C@H](CO)[C@@H](O)[C@H]1O` (stereo partly specified), the ILS at 100 mg/kg in [5] was 38%. Moreover, in [1], the IC50 was 2 µM.
As to `Nc1ncnc2c1c1c(N)nc(O)nc1n2C1O[C@H](CO)[C@@H](O)[C@H]1O` (stereo partly specified), the ILS at 200 mg/kg in assay [6] stood at 21%. Moreover, the IC50 in assay [1] worked out at 120 µM.
For `C=CCSc1ncnc2c1c1c(N)ncnc1n2C1O[C@H](CO)[C@@H](O)[C@H]1O` (stereo partly specified) the same measures were 9% and 110 µM.
`N#Cc1c(N)n(C2O[C@H](CO)[C@@H](O)[C@H]2O)c2ncnc(N)c12` (stereo partly specified): the ILS at 8 mg/kg in [7] worked out at 26%. Also, the IC50 in [1] is 0.18 µM.
For `Nc1nc2c(c(=O)[nH]1)c1c(N)ncnc1n2[C@@H]1O[C@H](CO)[C@@H](O)[C@H]1O`, the ILS at 200 mg/kg in [6] was found to be 13%. Moreover, the IC50 in assay [1] came out at 2.5 µM.
In the case of `Nc1ncnc2c1c1cnc(O)nc1n2C1O[C@H](CO)[C@@H](O)[C@H]1O` (stereo partly specified), in assay [8], the ILS at 320 mg/kg is 10%. In addition, the IC50 in assay [1] was 75 µM.
As to `CSc1nc(O)c2c3c(N)ncnc3n(C3O[C@H](CO)[C@@H](O)[C@H]3O)c2n1` (stereo partly specified), in assay [6], the ILS at 200 mg/kg is 0%. Moreover, in assay [1], the IC50 turned out to be 80 µM.
For the compound `Nc1ncnc2c1c1c(SCc3ccc([N+](=O)[O-])cc3)ncnc1n2C1O[C@H](CO)[C@@H](O)[C@H]1O` (stereo partly specified), the ILS at 200 mg/kg in assay [6] is -2%. In assay [1], the IC50 is 45 µM.
`CSc1ncnc2c1c1c(N)ncnc1n2C1O[C@H](CO)[C@@H](O)[C@H]1O` (stereo partly specified): the ILS at 200 mg/kg is 9% in assay [6] and 5% in assay [9]. In addition, in assay [1], the IC50 came out at 8.6 µM.
For `Nc1ncnc2c1c1c(=S)[nH]c(=O)[nH]c1n2C1O[C@H](CO)[C@@H](O)[C@H]1O` (stereo partly specified), the ILS at 100 mg/kg in [5] was determined as 4%. Moreover, the IC50 in assay [1] turned out to be 11 µM.
With `Nc1ncnc2c1c1cncnc1n2C1O[C@H](CO)[C@@H](O)[C@H]1O` (stereo partly specified), the ILS at 200 mg/kg in assay [6] turned out to be 2%. The IC50 in [1] was above 100 µM.
`CSc1nc(SC)c2c3c(N)ncnc3n(C3O[C@H](CO)[C@@H](O)[C@H]3O)c2n1` (stereo partly specified): the ILS at 200 mg/kg in assay [6] stood at 45%. In assay [1], the IC50 came to 78 µM.
With `NC(=O)c1c(N)n(C2O[C@H](CO)[C@@H](O)[C@H]2O)c2ncnc(N)c12` (stereo partly specified), the ILS at 120 mg/kg in assay [10] was 30%. Further, the IC50 in assay [1] was determined as 16 µM.
Take `Nc1ncnc2c1c1c(N)ncnc1n2[C@@H]1O[C@H](CO)[C@@H](O)[C@H]1O`: the ID50 result in assay [3] is “No effect”. Further, in assay [5], the ILS at 100 mg/kg is -9%.
Take `NC(=S)c1c(N)n(C2O[C@H](CO)[C@@H](O)[C@H]2O)c2ncnc(N)c12` (stereo partly specified): the ILS at 25 mg/kg in assay [11] came to 37%. The IC50 in [1] is 0.22 µM.
Consider `Nc1ncnc2c1c1c(O)nc(O)nc1n2C1O[C@H](CO)[C@@H](O)[C@H]1O` (stereo partly specified), for which the IC50 in assay [1] was around 100 µM. Moreover, in assay [2], the ILS at 400 mg/kg is 108%.
With `CSc1nc(O)nc2c1c1c(N)ncnc1n2C1O[C@H](CO)[C@@H](O)[C@H]1O` (stereo partly specified), the ILS at 200 mg/kg in assay [6] was 4%. Also, the ID50 entry in assay [3] was “No effect”.
With `Nc1ncnc2c1c1c(O)ncnc1n2C1O[C@H](CO)[C@@H](O)[C@H]1O` (stereo partly specified), in assay [5], the ILS at 100 mg/kg was found to be 20%. For the same compound, the IC50 in [1] came to 63 µM. The ILS at 50 mg/kg in assay [12] is 33%.
